Experimental data reported in patent EP1219638A2, “G-protein coupled receptors having homology to the P2Y purinoreceptor 1 (P2Y1)” (Pfizer Limited, priority 2000, dated 2002).

The compounds below were run on PFI-019, SEQ ID NO: 2 (assay: FLIPR functional cell-based assay for agonist activation (Fluo3 fluorescence), transiently transfected 293 cells expressing mouse Gα15). Conditions: PFI-019-transfected 293 cells (HEK 293 expressing mouse Gα15); fluorescence intensity versus time; concentration not given; Figures 3-6.
Design: species or system human
Description: Fluorescence Imaging Plate Reader (FLIPR®) technology was employed as a means to detect activation of PFI-019 by agonists in a cell-based assay.
5 x 10^6 Human Embryonic Kidney (HEK) 293 cells expressing the mouse Gα15 gene (from here on called '293 cells'), were transiently transfected with 7.5 µg of PFI-019 (contained within the pcDNA4HIS-max-TOPO (Invitrogen) plasmid) vector, or vector alone, using Lipofectamine Plus® reagent (Gibco BRL) as per the manufacturer's protocol. The plasmid pcDNA4HIS-max-TOPO was used as it contains elements that up-regulate the level of gene transcription over standard pcDNA3.1 vectors. 24 hrs post-transfection, the cells were detached from the flask using Trypsin/EDTA solution (LTI) and seeded into a black sided, Poly-D-lysine-treated, 96-well plate (Becton Dickinson) at 5 x 10^4 cells/well density. The plates were left overnight to allow the cells to adhere to the bottom of the wells. The medium was removed from the cells and replaced with 100 µl warm (37°C) dye loading solution (50 µg Fluo3 (Molecular Probes) in 20 µl DMSO + 20% pluronic acid in DMSO, added to 11 ml Dulbecco's Modified Eagles Medium containing 1x Probenecid (100x Probenecid - 0.71 g Probenecid was dissolved in 5 ml 1M NaOH and 5 ml Dulbeccos' Phosphate Buffered Saline (PBS), per plate; Probenecid (Molecular Probes) inhibits activity of the anion transport protein, thus improving dye loading). The plates were then incubated for 1 hr at 37°C. Plates were subsequently washed with 250 µl of wash buffer per well (5 ml 100x Probenecid stock + 495 ml PBS, pH 7.4) 4 times. The plates were returned to the 37°C/5%CO2 incubator for 30 mins prior to processing within the FLIPR® instrument. The FLIPR® processing involved reading the fluorescence for all samples for 2 minutes; during this time the fluorescence baseline was determined for the first 10 seconds. The desired amount of compound was then automatically transferred to the wells, and the fluorescence was continuously monitored for the remainder of the time. All compounds were diluted in wash buffer
Using methodology as described in detail above, purinoceptor agonist compounds were identified as being able to functionally activate PFI-019.
Figures 3, 4, 5 and 6 show the response of PFI-019-transfected 293 cells to 2-chloroadenosine triphosphate tetrasodium (2-chloro-ATP; Fig. 3), 2-Methylthioadenosine triphosphate tetrasodium (2-methyl-thio-ATP; Fig. 4;); 2-Methylthioadenosine diphosphate trisodium (2-methyl-thio-ADP, Fig. 5) and Uridine triphosphate (Fig. 6). […] All compounds were purchased from Sigma.

Row | Compound | stimulation of PFI-019
1 | CSc1nc(N)c2ncn([C@@H]3O[C@H](COP(=O)(O)OP(=O)(O)O)[C@@H](O)[C@H]3O)c2n1 [2-methyl-thio-ADP, 2-Methylthioadenosine diphosphate trisodium] | stimulation
2 | Nc1nc(Cl)nc2c1ncn2[C@@H]1O[C@H](COP(=O)([O-])OP(=O)([O-])OP(=O)([O-])[O-])[C@@H](O)[C@H]1O.[Na+].[Na+].[Na+].[Na+] [2-chloro-ATP, 2-chloroadenosine triphosphate tetrasodium] | stimulation
3 | O=c1ccn([C@@H]2O[C@H](COP(=O)(O)OP(=O)(O)OP(=O)(O)O)[C@@H](O)[C@H]2O)c(=O)[nH]1 [UTP, Uridine triphosphate] | stimulation
4 | CSc1nc(N)c2ncn([C@@H]3O[C@H](COP(=O)(O)OP(=O)(O)OP(=O)(O)O)[C@@H](O)[C@H]3O)c2n1 [2-methyl-thio-ATP, 2-Methylthioadenosine triphosphate tetrasodium] | stimulation
